The results in this text go back to patent US20240148664A1, “LIPID AND COMPOSITION” (SOGO PHARMACEUTICAL CO., LTD., priority 2021, published 2024).

Structures are written as SMILES.

Series [1] deals with HT1080-EGFP (human/fibrosarcoma) cells. The series can be described thus: Evaluation of toxicity: CCK-8 assay. It is filed as cell-based. The settings on record: lipid nanoparticle containing siRNA; absorbance relative to control cells without lipid nanoparticle set at 1.00. The method, then:
(§1) A. Provision of Cells • (i) A liquid medium (DMEM/Ham's F12, FBS+, P/S+) (FBS: fetal bovine serum, P/S: antibiotic) was taken out from a refrigerator and temperature-controlled in an incubator set at 37° C. • (ii) A cryotube containing the cells was taken out from a −80° C. freezer and thawed at once in an incubator set at 37° C. • (iii) A stock solution of the thawed cells was collected in a capped test tube. • (iv) The tube containing the cells was washed with the liquid medium, and the wash was also collected in the test tube. • (v) The tube was subjected to a centrifuge to precipitate the cells. • (vi) The supernatant was aspirated, and the liquid medium was added and gently tapped to disperse the cells. • (vii) A small amount of the cells-dispersed liquid medium was collected, and the number of cells was observed and counted under a microscope. • (viii) The cells were seeded in a 24-well plate such that the number of cells was 2×10^4 cells per well. For the plate for an LDH assay described later, the cells were seeded in a 96-well plate such that the number of cells was 4×10^3 cells per well. • (ix) The 24-well plate or the 96-well plate was placed in an incubator, and the cells were cultured for 24 hours under conditions of 37° C. and 5% CO2.
(§2) The produced lipid nanoparticles were introduced into cells. • (i) Fetal bovine serum (FBS) was added to a liquid medium (FBS-, P/S-) temperature-controlled as in (i) of A above, in such a way as to reach 10%. • (ii) A 24-well plate was taken out from an incubator, and the liquid medium supernatant in the 24-well plate was aspirated and washed with phosphate buffered saline (PBS). • (iii) 400 μL of the liquid medium produced in (i) above was added to the washed 24-well plate. In addition, 100 μL of an LNP solution having an adjusted concentration was added. • (iv) The 24-well plate was placed in the incubator, and the cells were cultured (for 24 hours). • (v) After 24 hours, the liquid medium supernatant in the 24-well plate was aspirated, and 500 μL of a liquid medium containing 10% FBS (FBS+/P/S+) was added. • (vi) The 24-well plate was placed in the incubator, and the cells were cultured for 24 hours under conditions of 37° C. and 5% CO2.
For Examples 1 to 9, a CCK-8 assay or an LDH assay was carried out to measure the metabolic activity of viable cells and relatively quantify the number of surviving cells to evaluate the toxicity of lipid nanoparticles.
(a) CCK-8 Assay • (i) Fetal bovine serum (FBS) and a viable cell counting kit (manufactured by DOJINDO LABORATORIES, Cell Count Kit-8) was added to a liquid medium (FBS-, P/S-) temperature-controlled as in (i) of A above, such that FBS was 10% and the kit was 10%. • (ii) A 24-well plate was taken out from an incubator. The liquid medium was removed, and 315 μL of the liquid medium containing the viable cell counting kit produced in (i) above was added. • (iii) The liquid medium was aged for 1 hour in the incubator. • (iv) The 24-well plate was taken out, and the absorbance was measured under conditions of a measurement wavelength of 450 nm and a target wavelength of 630 nm with a plate reader (manufactured by TECAN, Infinite M200). The absorbance was calculated with the absorbance of control cells to which no lipid nanoparticle was added set at 1.00. When the obtained value was 0.80 or more and 1.00 or less, a rating of double-circle (excellent) was given, when the obtained value was 0.50 or more and less than 0.80, a rating of circle (good) was given, when the obtained value was 0.20 or more and less than 0.50, a rating of triangle (fair) was given, and when the obtained value was less than 0.20, a rating of X-mark (poor) was given.
(In general: Tetrazolium assays rely on reduction of a dye to a coloured formazan, in cell work by metabolically active cells.)

Series [2] in a line: siRNA / mRNA encapsulation rate of lipid nanoparticle (RiboGreen). The format is physicochemical. The following applies: siRNA encapsulation rate of lipid nanoparticle. The method, then: The siRNA encapsulation rate and the mRNA encapsulation rate of the lipid nanoparticle were obtained as follows. First, a surfactant (Sigma-Aldrich, Triton (registered trademark), X-100 (reducing type)) was added to the lipid nanoparticle-containing solution to disrupt the lipid nanoparticle to release the encapsulated siRNA or mRNA. The amounts of the lipid nanoparticle-containing solution and the surfactant were adjusted such that the siRNA or the mRNA was 2 pmol and the surfactant was 1% in 40 μL of the solution after adding the surfactant to the lipid nanoparticle-containing solution. Next, the RiboGreen reagent (reagent that reacts with siRNA to emit fluorescence, manufactured by Thermo Fisher Scientific, Quant-iT (registered trademark) RiboGreen (registered trademark) RNA Assay Kit) was added to the solution, and the fluorescence intensity was measured under conditions of an excitation wavelength of 480 nm and a fluorescence wavelength of 520 nm with a fluorescence intensity meter (manufactured by TECAN, Infinite M200). Specifically, 75 μL of the RiboGreen reagent diluted to 1/2000 was added to a diluted solution obtained by adding 65 μL of citrate buffer to 10 μL of the solution, and the fluorescence intensity was measured. This makes it possible to relatively measure the total amount of the siRNA or the total amount of the mRNA present in the solution.
Subsequently, the RiboGreen reagent was added to the lipid nanoparticle-containing solution without adding a surfactant, and the fluorescence intensity was measured in the same manner with a fluorescence intensity meter. By not adding a surfactant, it is possible to relatively measure the amount of the siRNA or the mRNA free in the solution without being encapsulated in the lipid nanoparticle.
Then, the fluorescence intensity obtained from the solution to which the surfactant was added obtained as described above was fluorescence intensity a, and the fluorescence intensity thus obtained from the solution to which no surfactant was added obtained as described above was fluorescence intensity b, and according to the expression (a−b)/a×100, the siRNA encapsulation rate (%) or the mRNA encapsulation rate (%) of the lipid nanoparticle was obtained. Each of fluorescence intensity a and fluorescence intensity b is a value obtained by subtracting a blank from the arithmetic average value of the results of three measurements for each solution. The blank was measured by carrying out the same operation on a well containing water containing no cell or lipid nanoparticle.

Series [3] deals with HT1080-EGFP (human/fibrosarcoma) cells. The series can be described thus: Evaluation of knockdown effect (GFP assay), Cell experiment 1. It is filed as cell-based. The settings on record: lipid nanoparticle containing siRNA against EGFP; fluorescence intensity with control cells without lipid nanoparticle set at 100. The method, then:
A cell experiment was carried out by using HT1080-EGFP (human/fibrosarcoma) cells in order to evaluate lipid nanoparticles encapsulating an siRNA produced by using the lipids of the Examples and the Comparative Examples. These cells are cells provided with a green fluorescent protein gene (EGFP). The expression of EGFP can be easily confirmed by measuring the fluorescence intensity of a solution in which the cells are lysed, and thus by acting lipid nanoparticles encapsulating an siRNA that suppresses the expression of EGFP and observing any decrease in fluorescence intensity, the performance of the lipid nanoparticles used can be evaluated. Hereinafter, the procedure of the cell experiment will be shown.
as §1, §2
By carrying out a GFP assay, the EGFP expression level in cells was measured to evaluate the effect of knocking down the green fluorescent protein gene (EGFP) by lipid nanoparticles. • (i) A 24-well plate was taken out from an incubator and washed with PBS. • (ii) A 1% octylglucoside solution to which a protease inhibitor was added was added in order to disrupt cells. Stirring with a pipette lysed the cells. • (iii) The cell lysate was transferred to an Eppendorf tube and subjected to a centrifuge. • (iv) 150 μL of the supernatant was collected and added to a plate for fluorescence measurement. • (v) The fluorescence intensity was measured under conditions of an excitation wavelength of 485 nm and a fluorescence wavelength of 535 nm with a plate reader (manufactured by TECAN, Infinite M200). The fluorescence intensity was calculated with the fluorescence intensity of control cells to which no lipid nanoparticle was added set at 100.

Series [4] is described as follows: Measurement of particle size, polydispersity index and zeta potential of lipid nanoparticle (Zetasizer). The format is physicochemical. The settings on record: lipid nanoparticle containing siRNA; for Particle size (nm) / PDI: main lipid/DPPC/cholesterol=45/10/45; for Particle size (nm): Z-average in ultrapure water; for PDI: ultrapure water; for Zeta potential (mV): pH 7.4 Tris-HCl. The protocol:
30 μL of each of the dialyzed lipid nanoparticle-containing solutions obtained by the above operation was measured out, 800 μL of ultrapure water was added to dilute the lipid nanoparticle-containing solution, and the diluted preparation solution was used to measure the particle size (nm) and the polydispersity index (PDI) by using a Zetasizer (manufactured by Malvern Panalytical, Zetasizer nano Ultra). The particle size was evaluated by Z-average in ultrapure water. The zeta potential was measured by using pH 7.4 Tris-HCl as a dilute solution.

As to `CCCCCCCC/C=C\CCCCCCCCC(CCCCCCC/C=C\CCCCCCCC)OC(=O)C(CC(=O)O)NC(=O)C(N)CCCCN` (stereo not drawn) [Example 7, 3-(2,6-diaminohexanamido)-4-(((9Z,27Z)-hexatriaconta-9,27-dien-18-yl)oxy)-4-oxobutanoic acid], the “CCK Assay” value in series [1] was “◯ (when the obtained value was 0.50 or more and less than 0.80, a rating of circle (good) was given)”. Further, in series [2], the “Encapsulation rate (%)” value is reported as 100%. In series [3], the “GFP Assay” value was 28. In addition, in series [4], the “Particle size (nm)” value worked out at 94.2 nm, the PDI is given as 0.159 and the “Zeta potential (mV)” value came to 8.28 mV.

As to `CCCCCCCC/C=C\CCCCCCCCC(CCCCCCC/C=C\CCCCCCCC)OC(=O)C(CCC(=O)O)NC(=O)C(N)CCCCN` (stereo not drawn) [Example 8, 4-(2,6-diaminohexanamido)-5-(((9Z,27Z)-hexatriaconta-9,27-dien-18-yl)oxy)-5-oxopentanoic acid], the “CCK Assay” value in series [1] was “⊚ (When the obtained value was 0.80 or more and 1.00 or less, a rating of double-circle (excellent) was given)”. Also, the “Encapsulation rate (%)” value in series [2] was 100%. The “GFP Assay” value in series [3] is recorded as 47. Also, in series [4], the “Particle size (nm)” value is on record as 162.5 nm, the PDI worked out at 0.147 and the “Zeta potential (mV)” value was determined as 19.1 mV.

For the molecule `CCCCCCCC/C=C\CCCCCCCCC(CCCCCCC/C=C\CCCCCCCC)OC(=O)C(CCC(=O)O)NC(=O)C(N)Cc1c[nH]cn1` (stereo not drawn) [Example 9, 4-(2-amino-3-(1H-imidazol-4-yl)propanamido)-5-(((9Z,27Z)-hexatriaconta-9,27-dien-18-yl)oxy)-5-oxopentanoic acid], the “CCK Assay” value in series [1] was “⊚ (When the obtained value was 0.80 or more and 1.00 or less, a rating of double-circle (excellent) was given)”. In series [2], the “Encapsulation rate (%)” value amounted to 84%. Further, in series [3], the “GFP Assay” value was 56. Further, in series [4], the “Particle size (nm)” value is 107.6 nm, the PDI is given as 0.093 and the “Zeta potential (mV)” value came out at 24.6 mV.
